Experimental data taken from patent publication US20230399332A1, “IMIDAZO[1,2-a]PYRAZINE OR PYRAZOLO[1,5-a]PYRIMIDINE DERIVATIVE AND USE THEREOF” (TENCENT TECHNOLOGY (SHENZHEN) COMPANY LIMITED, priority 2022, published 2023).
Where two headings read alike, the source gives them in different places.

What was measured:
[1] = target: LSD1 (Homo sapiens (Human), UniProt O60341); experiment: LSD1 inhibitory activity on an enzyme level, AlphaScreen method; type: biochemical; conditions: in vitro
Procedure: This experiment was carried out to test the in vitro inhibitory activity of the compounds of the present disclosure against LSD1.
Experimental steps and a method: In this experiment, the in vitro inhibitory activity of the compounds of the present disclosure against LSD1 on an enzyme level was tested by using an AlphaScreen method. The experimental steps are described as follows: • a) preparation of a 1× buffer: • preparing a 1× buffer (improved trihydroxymethylaminomethane buffer); • b) continuous dilution of the compounds: • transferring the compounds of the present disclosure to a porous plate by using Echo at a final DMSO concentration of 1%; • c) preparation of an enzyme solution: • preparing an enzyme solution in the 1× buffer; • d) preparation of a substrate solution: • adding polypeptide to the 1× buffer to prepare a substrate solution; • e) transferring 5 μL of the enzyme solution or the 1× buffer to the porous plate; • f) conducting incubation at room temperature for 15 min; • g) adding 5 μL of the substrate solution to each well to induce a reaction; • h) conducting incubation at room temperature for 40 min; • i) preparing a 1× Alphalisa buffer; • j) preparation of a 1× Alphalisa buffer solution of receptors and donors: • adding 15 μL of a receptor and donor solution in dark light environment, and conducting incubation at room temperature for 60 min; • k) reading an endpoint in an EnSpire Alpha mode; and • l) data processing: • calculating an inhibitory value according to an equation 1:
Inh %=(Max−Signal)/(Max−Min)*100; and equation 1: • calculating an IC50 value by using XL-Fit according to an equation 2:
Y=Bottom+(Top-Bottom)/(1+(IC50/X)[…]), equation 2: • where Y indicates the inhibitory rate, and X indicates the concentration of a compound.

[2] = target: hERG (Homo sapiens (Human), UniProt Q12809); experiment: hERG inhibitory activity, whole cell patch clamp in CHO hERG cells; type: cell-based; conditions: for inhibition at 10 µM: human, CHO cells that express hERG, read-out: hERG inhibitory rate
Procedure: This experiment was carried out to test the in vitro inhibitory activity of the compounds of the present disclosure against hERG.
In this method, whole cell recording was conducted by using a HEKA EPC 10 USB patch clamp amplifier (HEKA Elektronik, Germany). A cover slide with a large number of individual CHO hERG cells on the surface was removed and placed in a recording tank which was treated with continuous perfusion (about 1 ml/min) and loaded into an inverted microscope. Currents of hERG channels of the individual cells were recorded by using a standard whole cell recording method. A fixed voltage of −80 mV was applied to the cells by a voltage clamp. The hERG currents were activated by depolarization at +20 mV for 5 s, and then the currents were changed back at −50 mV for 5 s to remove a passivation effect and observe deactivated tail currents. Potassium ion tail currents observed in the hERG channels were stabilized by continuous perfusion in this step. Then, the cells were treated with a drug of the present disclosure until a stable state was reached. A stable state was considered as being reached when three consecutive superimposed currents were recorded. At this time point, the cells were treated again with an extracellular solvent until the current amplitude was changed back to near the level before administration. Cisapride was used in a control experiment to verify that the mass and response of hERG cells were in a normal state.

[3] = Pharmacokinetics after intravenous injection or oral administration in mice; type: in vivo; conditions: mouse, plasma, CD-1 mice, 5 mg/kg; for AUC(0-t): read-out: Curve area AUC0-t; for half-life: read-out: Half-life T1/2 (converted)
Procedure: This experiment was carried out to test pharmacokinetic properties of the compounds of the present disclosure in mice.
A tested compound was dissolved in a mixture of 10% DMSO, 10% Solutol HS15 and 80% normal saline, and subjected to vortex treatment and ultrasonic treatment to obtain a corresponding concentration of a clarified solution. Then, the clarified solution was filtered with a microporous filter membrane for later use. A resulting tested compound solution was injected intravenously to CD-1 mice with a body weight of 21 to 27 g at a dose of 5 mg/kg. A tested compound was dissolved in a mixture of 10% DMSO, 10% Solutol HS15 and 80% normal saline, and subjected to vortex treatment and ultrasonic treatment to obtain a corresponding concentration of a clarified solution. Then, the clarified solution was filtered with a microporous filter membrane for later use. A resulting tested compound solution was administered orally to CD-1 mice with a body weight of 21 to 27 g at a dose of 5 mg/kg. Whole blood was collected at certain time points, and plasma was prepared. Drug concentration was analyzed by an LC-MS/MS method, and pharmacokinetic parameters were calculated by Phoenix WinNonlin software.

Sequence of hERG (Q12809 whole entry): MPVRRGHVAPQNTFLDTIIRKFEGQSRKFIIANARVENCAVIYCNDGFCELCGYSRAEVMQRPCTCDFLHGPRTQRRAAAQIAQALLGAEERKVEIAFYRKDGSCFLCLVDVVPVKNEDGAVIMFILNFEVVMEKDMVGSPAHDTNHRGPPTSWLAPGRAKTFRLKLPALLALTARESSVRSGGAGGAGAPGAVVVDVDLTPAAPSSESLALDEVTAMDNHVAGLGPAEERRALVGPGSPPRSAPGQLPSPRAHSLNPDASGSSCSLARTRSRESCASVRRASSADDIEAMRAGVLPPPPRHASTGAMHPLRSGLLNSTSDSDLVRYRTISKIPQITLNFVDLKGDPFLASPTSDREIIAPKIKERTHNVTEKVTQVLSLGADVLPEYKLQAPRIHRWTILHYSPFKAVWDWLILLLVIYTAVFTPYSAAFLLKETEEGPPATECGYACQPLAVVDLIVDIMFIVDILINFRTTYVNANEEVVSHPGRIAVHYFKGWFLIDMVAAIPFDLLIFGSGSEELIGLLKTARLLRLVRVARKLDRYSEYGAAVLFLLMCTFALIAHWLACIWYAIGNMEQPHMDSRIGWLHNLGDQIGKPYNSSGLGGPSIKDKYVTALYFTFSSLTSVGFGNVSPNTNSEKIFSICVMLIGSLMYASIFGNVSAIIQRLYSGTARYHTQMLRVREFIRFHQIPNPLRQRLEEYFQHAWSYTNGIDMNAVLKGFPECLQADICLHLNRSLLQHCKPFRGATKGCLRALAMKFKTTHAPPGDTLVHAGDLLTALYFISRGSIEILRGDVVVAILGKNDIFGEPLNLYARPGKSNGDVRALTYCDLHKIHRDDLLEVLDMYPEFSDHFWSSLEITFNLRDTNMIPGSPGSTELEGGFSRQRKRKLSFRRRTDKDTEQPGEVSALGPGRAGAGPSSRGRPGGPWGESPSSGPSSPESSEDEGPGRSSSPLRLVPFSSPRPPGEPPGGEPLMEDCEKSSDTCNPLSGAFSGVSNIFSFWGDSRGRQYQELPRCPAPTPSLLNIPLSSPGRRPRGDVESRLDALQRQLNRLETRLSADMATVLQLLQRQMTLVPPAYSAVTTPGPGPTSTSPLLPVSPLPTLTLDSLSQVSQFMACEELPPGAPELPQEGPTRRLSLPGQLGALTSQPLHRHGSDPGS

CC(C)(O)Cn1nnc2cc(-c3c(-c4ccc(C#N)c(F)c4)nc4c(N5CCC[C@@H](N)C5)nccn34)c(F)cc21 [Compound 12, (R)-4-(8-(3-aminopiperidin-1-yl)-3-(6-fluoro-1-(2-hydroxy-2-methylpropyl)-1H-benzo[d][1,2,3]triazol-5-yl)imidazo[1,2-a]pyrazin-2-yl)-2-fluorobenzonitrile]
IC50 [1]: 1.6 nM
inhibition at 10 µM [2]: 27%

CC(C)(O)Cn1nnc2cc(-c3c(-c4ccc(C#N)c(F)c4)nc4c(N5CCC[C@@H](N)C5)nccn34)c(F)cc21 [Compound 18, (R)-4-(8-(3-aminopiperidin-1-yl)-3-(6-fluoro-1-(2-hydroxy-2-methylpropyl)-1H-benzo[d][1,2,3]triazol-5-yl)imidazo[1,2-a]pyrazin-2-yl)-2-fluorobenzonitrile]
hERG inhibitory rate ([2]; 10 μM): 43.72%

CC(C)(O)Cn1nnc2cc(-c3c(-c4ccc(C#N)c(F)c4)nc4c(N5CCC[C@@H](N)C5)nccn34)ccc21 [Compound 20, (R)-4-(8-(3-aminopiperidin-1-yl)-3-(1-(2-hydroxy-2-methylpropyl)-1H-benzo[d][1,2,3]triazol-5-yl)imidazo[1,2-a]pyrazin-2-yl)-2-fluorobenzonitrile]
IC50 [1]: 2.6 nM
inhibition at 10 µM [2]: 26.7%

CC(C)(O)Cn1nnc2cc(-c3c(-c4ccc(C#N)c(F)c4)nc4c(N5[C@@H]6CC[C@H]5[C@@H](N)C6)nccn34)c(F)cc21 [Compound 27, 4-(8-((1S,2S,4R)-2-amino-7-azabicyclo[2.2.1]heptane-7-yl)-3-(6-fluoro-1-(2-hydroxy-2-methylpropyl)-1H-benzo[d][1,2,3]triazol-5-yl)imidazo[1,2-a]pyrazin-2-yl)-2-fluorobenzonitrile]
IC50 [1]: 1 nM
Vd ([3]; intravenous injection, read-out: Apparent volume of distribution V): 5.04 L/kg
clearance ([3]; intravenous injection, read-out: Clearance rate CL): 7.25 mL/min/kg
AUC(0-t) ([3]; intravenous injection): 11500 ng·h/mL
half-life ([3]; intravenous injection): 8.33 h
Cmax ([3]; oral administration, read-out: Blood drug concentration Cmax): 648 ng/mL
AUC(0-t) ([3]; oral administration): 6530 ng·h/mL
half-life ([3]; oral administration): 5.86 h
